{
  "source": "patent US5846978A",
  "about": "“HIV protease inhibitors useful for the treatment of AIDS” (Merck & Co., Inc., priority 1997, dated 1998)",
  "key": {"HIV protease [1]": {"target": "T1, HIV protease (Human immunodeficiency virus type 1 group M subtype B, UniProt P12497)", "T1 construct": "made in house; host or cells: Escherichia coli", "test": "Assay for Inhibition of Microbial Expressed HIV Protease (peptide substrate cleavage, HPLC)", "assay_type": "biochemical", "conditions": "for IC50 / % inhibition: pH 5.5, 30° C., 1 hour; for % inhibition: concentration not given", "protocol": "Assay for Inhibition of Microbial Expressed HIV Protease\nInhibition studies of the reaction of the protease expressed in Eschericia coli with a peptide substrate [Val-Ser-Gln-Asn-(betanapthyl)Ala-Pro-Ile-Val, 0.5 mg/mL at the time the reaction is initiated] were in 50 mM Na acetate, pH 5.5, at 30° C. for 1 hour. Various concentrations of inhibitor in 1.0 μl DMSO were added to 25 μl of the peptide solution in water. The reaction is initiated by the addition of 15 μl of 0.33 nM protease (0.11 ng) in a solution of 0.133M Na acetate pH 5.5 and 0.1% bovine serum albumin. The reaction was quenched with 160 μl of 5% phosphoric acid. Products of the reaction were separated by HPLC (VYDAC wide pore 5 cm C-18 reverse phase, acetonitrile gradient, 0.1% phosphoric acid). The extent of inhibition of the reaction was determined from the peak heights of the products. […] [drawing 61] 5(RS)-((4')-2\"-furanyl)methylpheny-9(RS)-hydroxy-1(RS)-hydroxy-methyl-3-(2' -methylpropyl-3-azabicyclo[3.3.1]nonan-7-one (Compound 10, Table 1) [drawing 62]"}, "HIV protease [2]": {"target": "T1, HIV protease", "test": "Assay for Inhibition of Microbial Expressed HIV Protease (peptide substrate cleavage, HPLC)", "assay_type": "biochemical", "conditions": "concentration printed as (8.8) μM (column head 'Enzyme concentration (μM)'); pH 5.5, 30° C., 1 hour"}},
  "data": [
    {"smiles": "O=C1CC2(CO)CN(CC3CC3)CC(Cc3ccccc3)(C1)C2O", "note": "(stereo not shown) [Compound 2]", "values": [
      {"measurement": "inhibition at 250 µM", "setting": "HIV protease [1]; pH 5.5", "value": 56, "unit": "%"}
    ]},
    {"smiles": "CC(C)(C)CN1CC2(CO)CC(=O)CC(Cc3ccccc3)(C1)C2O", "note": "(stereo not shown) [Compound 3]", "values": [
      {"measurement": "inhibition at 250 µM", "setting": "HIV protease [1]; pH 5.5", "value": 69, "unit": "%"}
    ]},
    {"smiles": "O=C1CC2(CO)CN(Cc3ccccc3)CC(Cc3ccccc3)(C1)C2O", "note": "(stereo not shown) [Compound 4]", "values": [
      {"measurement": "inhibition at 250 µM", "setting": "HIV protease [1]; pH 5.5", "value": 82, "unit": "%"}
    ]},
    {"smiles": "CC(C)CN1CC2(CO)CC(=O)CC(Cc3ccccc3)(C1)C2O", "note": "(stereo not shown) [Compound 5]", "values": [
      {"measurement": "inhibition at 250 µM", "setting": "HIV protease [1]; pH 5.5", "value": 63, "unit": "%"}
    ]},
    {"smiles": "CC(C)CN1CC2(CO)CC(=O)CC(Cc3ccc(Br)cc3)(C1)C2O", "note": "(stereo not shown) [Compound 6]", "values": [
      {"measurement": "inhibition at 250 µM", "setting": "HIV protease [1]; pH 5.5", "value": 71, "unit": "%"},
      {"measurement": "IC50", "setting": "HIV protease [1]", "value": 244, "unit": "µM"}
    ]},
    {"smiles": "COc1ccccc1-c1ccc(CC23CC(=O)CC(CO)(CN(CC(C)C)C2)C3O)cc1", "note": "(stereo not shown) [Compound 7]", "values": [
      {"measurement": "inhibition at 100 µM", "setting": "HIV protease [1]; pH 5.5", "value": 56, "unit": "%"}
    ]},
    {"smiles": "CC(C)CCN1CC2(CO)CC(=O)CC(Cc3ccccc3)(C1)C2O", "note": "(stereo not shown) [Compound 8]", "values": [
      {"measurement": "% inhibition", "setting": "HIV protease [1]", "value": 68, "unit": "%"}
    ]},
    {"smiles": "O=C1CC2(CO)CN(CC3CCCC3)CC(Cc3ccccc3)(C1)C2O", "note": "(stereo not shown) [Compound 9]", "values": [
      {"measurement": "IC50", "setting": "HIV protease [1]", "value": 89, "unit": "µM"}
    ]},
    {"smiles": "CC(C)CN1CC2(CO)CC(=O)CC(Cc3ccc(-c4ccco4)cc3)(C1)C2O", "note": "(stereo not shown) [Compound 10]", "values": [
      {"measurement": "inhibition at 100 µM", "setting": "HIV protease [1]; pH 5.5", "value": 62, "unit": "%"}
    ]},
    {"smiles": "CC(C)(C)N1CC2(CO)CC(=O)CC(Cc3ccccc3Br)(C1)C2O", "note": "(stereo not shown) [Compound 11]", "values": [
      {"measurement": "inhibition at 100 µM", "setting": "HIV protease [1]; pH 5.5", "value": 76, "unit": "%"},
      {"measurement": "IC50", "setting": "HIV protease [1]", "value": 30, "unit": "µM"}
    ]},
    {"smiles": "CC(C)(C)N1CC2(CO)CC(=O)CC(Cc3ccc4ccccc4c3)(C1)C2O", "note": "(stereo not shown) [Compound 12]", "values": [
      {"measurement": "inhibition at 100 µM", "setting": "HIV protease [1]; pH 5.5", "value": 43, "unit": "%"}
    ]},
    {"smiles": "CC(C)C[C@@H](CO)CN1CC2(CO)CC(=O)CC(Cc3ccccc3)(C1)C2O", "note": "(stereo partly shown) [Compound 13]", "values": [
      {"measurement": "% inhibition", "setting": "HIV protease [1]", "value": 75, "unit": "%"},
      {"measurement": "IC50", "setting": "HIV protease [1]", "value": 44, "unit": "µM"}
    ]},
    {"smiles": "CC(C)C[C@H](CO)CN1CC2(CO)CC(=O)CC(Cc3ccccc3)(C1)C2O", "note": "(stereo partly shown) [Compound 14]", "values": [
      {"measurement": "% inhibition", "setting": "HIV protease [1]", "value": 62, "unit": "%"}
    ]},
    {"smiles": "CCCCC(O)C12CC(=O)CC(Cc3ccccc3)(CN(CC(C)C)C1)C2O", "note": "(stereo not shown) [Compound 15]", "values": [
      {"measurement": "inhibition at 100 µM", "setting": "HIV protease [1]; pH 5.5", "value": 73, "unit": "%"},
      {"measurement": "IC50", "setting": "HIV protease [1]", "value": 14, "unit": "µM"}
    ]},
    {"smiles": "CC(C)CN1CC2(Cc3ccccc3)CC(=O)CC(C(O)Cc3ccccc3)(C1)C2O", "note": "(stereo not drawn) [Compound 16, 5(RS)-methylphenyl-9(RS)-hydroxy-1(RS)-((1'-hydroxy)-2'-phenyl)-ethyl-3-(2\"-methyl)propyl-3-azabicyclo[3.3.1] nonan-7-one]", "values": [
      {"measurement": "IC50", "setting": "HIV protease [1]", "value": 50, "unit": "µM"},
      {"measurement": "% inhibition", "setting": "HIV protease [2]", "value": 82, "unit": "%"}
    ]},
    {"smiles": "O=C1CC2(Cc3ccccc3)CN(Cc3ccccc3)CC(C(O)C#Cc3ccccc3)(C1)C2O", "note": "(stereo not shown) [Compound 17]", "values": [
      {"measurement": "inhibition at 50 µM", "setting": "HIV protease [1]; pH 5.5", "value": 52, "unit": "%"}
    ]},
    {"smiles": "O=C1CC2(Cc3ccccc3)CN(Cc3ccccc3)CC(C(O)Cc3ccccc3)(C1)C2O", "note": "(stereo not drawn) [Compound 18, 5(RS)-methylpheny-9(RS)-hydroxy-1(RS)-((1'-hydroxy)-2'-phenyl)-ethyl-3-benzyl-3-azabicyclo[3.3.1]nonan-7-one]", "values": [
      {"measurement": "inhibition at 50 µM", "setting": "HIV protease [1]; pH 5.5", "value": 63, "unit": "%"}
    ]},
    {"smiles": "CC(C)(C)N1CC2(Cc3ccccc3)CC(=O)CC(C(O)Cc3ccccc3)(C1)C2O", "note": "(stereo not shown) [Compound 19]", "values": [
      {"measurement": "inhibition at 50 µM", "setting": "HIV protease [1]; pH 5.5", "value": 44, "unit": "%"}
    ]},
    {"smiles": "CC(C)CN1CC2(Cc3ccccc3)CC(=O)CC(C(O)Cc3ccccc3N)(C1)C2O", "note": "(stereo not shown) [Compound 20]", "values": [
      {"measurement": "inhibition at 100 µM", "setting": "HIV protease [1]; pH 5.5", "value": 93, "unit": "%"},
      {"measurement": "IC50", "setting": "HIV protease [1]", "value": 1.6, "unit": "µM"}
    ]},
    {"smiles": "O=C1CC2(Cc3ccccc3)CN(CC3CCCC3)CC(C(O)Cc3ccccc3)(C1)C2O", "note": "(stereo not shown) [Compound 21]", "values": [
      {"measurement": "inhibition at 25 µM", "setting": "HIV protease [1]; pH 5.5", "value": 80, "unit": "%"},
      {"measurement": "IC50", "setting": "HIV protease [1]", "value": 1.8, "unit": "µM"}
    ]},
    {"smiles": "O=C1CC2(Cc3ccccc3)CN(CC3CCCO3)CC(C(O)Cc3ccccc3)(C1)C2O", "note": "(stereo not shown) [Compound 22]", "values": [
      {"measurement": "inhibition at 100 µM", "setting": "HIV protease [1]; pH 5.5", "value": 84, "unit": "%"},
      {"measurement": "IC50", "setting": "HIV protease [1]", "value": 10.4, "unit": "µM"}
    ]},
    {"smiles": "O=C1CC2(Cc3ccccc3)CN(Cc3ccccc3)CC(C(O)CN3CCCCS3(=O)=O)(C1)C2O", "note": "(stereo not shown) [Compound 23]", "values": [
      {"measurement": "inhibition at 100 µM", "setting": "HIV protease [1]; pH 5.5", "value": 69, "unit": "%"},
      {"measurement": "IC50", "setting": "HIV protease [1]", "value": 29, "unit": "µM"}
    ]}
  ]
}
